Test results published in US9417239B2, “Assay to determine LRRK2 activity in parkinson's disease” (PARKINSON'S INSTITUTE, priority 2011, dated 2016).

Experiments:
[1] = molecular target: T1, LRRK2 (Homo sapiens, UniProt Q5S007, D2017A); settings: cited from earlier work
T1 construct: expressed in transfected cells; host or cells: HEK293 Flp-in T-REx, doxycycline-induced

[2] = molecular target: T2, LRRK2 (Homo sapiens, UniProt Q5S007); experiment: Immunoblot of LRRK2 phosphosites after GFP immunoprecipitation from HEK293 T-REx cells expressing GFP-LRRK2 variants; format: cell-based; settings: T-REx cells expressing active LRRK2; 1 μM LRRK2-IN1 for 90 minutes
Experimental: (§1) Protein concentrations were determined using the Bradford method with BSA as the standard.

[3] = molecular target: T1, LRRK2; experiment: as above; format: cell-based; settings: kinase inactive LRRK2 mutants; after LRRK2-IN1 treatment
Experimental: as §1

[4] = molecular target: 14-3-3 binding to LRRK2 (Homo sapiens, UniProt Q5S007); experiment: 14-3-3 overlay (far-western) assay of immunoprecipitated GFP-LRRK2; format: cell-based; settings: 1 μM LRRK2-IN1 for 90 minutes
Experimental: The indicated variants of full-length GFP-tagged LRRK2 were expressed from a stable and inducible locus in HEK293 T-REx cells and subjected to immunoprecipitation analysis. Immunoprecipitates were subjected to immunoblot analysis with anti-GFP, and anti-phospho-Ser910 (αpS910), anti-phospho-Ser935 (αpS935), anti-phospho-Ser955 (αpS955), and anti-phospho-Ser973 (αpS973) antibodies. 14-3-3 binding to the LRRK2 variants was assessed by 14-3-3 far-western blot analyses. All blots were co-probed with phospho antibody and GFP (total protein) monoclonal antibody and analyzed by Odyssey® LI-COR analysis; a representative total GFP blot is shown.
The Nanotrap GFP-Trap_A matrix was from ChromoTek (GTA-20). […] LiCOR Dyelight labelled 14-3-3 protein (recombinant, His tagged BMH1, a kind gift of Dr. Dario Alessi) was prepared as per the manufacturer's instructions and used to detect 14-3-3 binding. […] Fluorescent secondary antibodies were from Li-COR (Lincoln Nebr.) or Rockland immunochemicals (Rockland Ill.) LRRK2 Immunoprecipitation assays. Cell lysates were prepared in Lysis buffer (1.0 ml per 15 cm dish) and subjected to immunoprecipitation with GFP-trapA beads at 10 ul beads per 1.0 ml lysate for 1 hr. […]

[5] = tested on: GFP-LRRK2; experiment: Fluorescence microscopy of GFP-LRRK2 localization in HEK-293 Flp-in T-REx cells; format: cell-based, human; settings: wild-type GFP-LRRK2; 1 μM LRRK2-IN1 for 90 minutes
Experimental: T-REx cells lines harboring the indicated LRRK2 variants were induced for 24 h with 1 μg/ml doxycycline to induce expression of GFP-LRRK2. After induction, cells were exposed to vehicle control (DMSO) or 1 μM LRRK2-IN1 for 90 minutes, then fixed with paraformaldehyde and GFP fluorescence was imaged. Representative fluorescent micrographs of cultures for the indicated phosphosite mutants in the presence and absence of inhibitor are shown, localization analysis was performed at least three times. White scale bar represents 10 microns.
HEK-293 Flp-in T-REx cells harbouring GFP tagged LRRK2 and PD associated mutations were plated in 4-well glass bottom, CC2 coated chamber slides (Nunc). One day after plating, cells were induced with 1 μg/ml doxycycline and 24 hr later, cells were fixed in 4% paraformaldehyde buffered in phosphate buffered saline (purchased from Electron Microscopy Sciences, #15710). Cells were imaged under on a Nikon TiE microscope with a 60× objective.

[6] = molecular target: T2, LRRK2; experiment: Immunoprecipitation of FLAG-tagged wild-type LRRK2 from treated HEK 293 cells, in vitro autophosphorylation kinase assay, phosphosite immunoblot; format: cell-based; settings: transient expression, 1 μM LRRK2-IN1 for 90 minutes
Source text: Immunoprecipitates were extensively washed then subjected to in vitro kinase assay in the presence or absence of ATP,in the presence or absence of LRRK2-1N1. Reaction products were immunoblotted with antiphospho-Ser1491 (αpThr1491), anti-phospho-Ser910 (αpS910), anti-phospho-Ser935 (αpS935), anti-phospho-Ser955 (αpS955), and anti-phospho-Ser973 (αpS973) antibodies.
Immunoprecipitation Kinase Assay conditions. Wild-type LRRK2 was transiently expressed in HEK293 cells using polyethylenimine for approximately 36 hours, then cells were treated with DMSO or 1 μM LRRK2-IN1 for 90 minutes. Lysates were then subjected to immunoprecipitation with anti-FLAG M2 agarose at a ratio of 1 μl beads per 100 μg of lysate for 2 hours.

[7] = tested on: LRRK2; experiment: Western blot of LRRK2 phosphorylation sites, FLAG tagged LRRK2 in HEK293 T-Rex cells (FIG. 4); format: cell-based, human; settings: kinase dead and inhibitor resistant mutant samples
Source text: Full length, FLAG tagged, wild-type or mutant LRRK2 (as indicated in FIG. 4) was expressed from a stable/inducible locus of HEK293 T-Rex cells (Invitrogen).

T2 sequence (Q5S007 whole entry): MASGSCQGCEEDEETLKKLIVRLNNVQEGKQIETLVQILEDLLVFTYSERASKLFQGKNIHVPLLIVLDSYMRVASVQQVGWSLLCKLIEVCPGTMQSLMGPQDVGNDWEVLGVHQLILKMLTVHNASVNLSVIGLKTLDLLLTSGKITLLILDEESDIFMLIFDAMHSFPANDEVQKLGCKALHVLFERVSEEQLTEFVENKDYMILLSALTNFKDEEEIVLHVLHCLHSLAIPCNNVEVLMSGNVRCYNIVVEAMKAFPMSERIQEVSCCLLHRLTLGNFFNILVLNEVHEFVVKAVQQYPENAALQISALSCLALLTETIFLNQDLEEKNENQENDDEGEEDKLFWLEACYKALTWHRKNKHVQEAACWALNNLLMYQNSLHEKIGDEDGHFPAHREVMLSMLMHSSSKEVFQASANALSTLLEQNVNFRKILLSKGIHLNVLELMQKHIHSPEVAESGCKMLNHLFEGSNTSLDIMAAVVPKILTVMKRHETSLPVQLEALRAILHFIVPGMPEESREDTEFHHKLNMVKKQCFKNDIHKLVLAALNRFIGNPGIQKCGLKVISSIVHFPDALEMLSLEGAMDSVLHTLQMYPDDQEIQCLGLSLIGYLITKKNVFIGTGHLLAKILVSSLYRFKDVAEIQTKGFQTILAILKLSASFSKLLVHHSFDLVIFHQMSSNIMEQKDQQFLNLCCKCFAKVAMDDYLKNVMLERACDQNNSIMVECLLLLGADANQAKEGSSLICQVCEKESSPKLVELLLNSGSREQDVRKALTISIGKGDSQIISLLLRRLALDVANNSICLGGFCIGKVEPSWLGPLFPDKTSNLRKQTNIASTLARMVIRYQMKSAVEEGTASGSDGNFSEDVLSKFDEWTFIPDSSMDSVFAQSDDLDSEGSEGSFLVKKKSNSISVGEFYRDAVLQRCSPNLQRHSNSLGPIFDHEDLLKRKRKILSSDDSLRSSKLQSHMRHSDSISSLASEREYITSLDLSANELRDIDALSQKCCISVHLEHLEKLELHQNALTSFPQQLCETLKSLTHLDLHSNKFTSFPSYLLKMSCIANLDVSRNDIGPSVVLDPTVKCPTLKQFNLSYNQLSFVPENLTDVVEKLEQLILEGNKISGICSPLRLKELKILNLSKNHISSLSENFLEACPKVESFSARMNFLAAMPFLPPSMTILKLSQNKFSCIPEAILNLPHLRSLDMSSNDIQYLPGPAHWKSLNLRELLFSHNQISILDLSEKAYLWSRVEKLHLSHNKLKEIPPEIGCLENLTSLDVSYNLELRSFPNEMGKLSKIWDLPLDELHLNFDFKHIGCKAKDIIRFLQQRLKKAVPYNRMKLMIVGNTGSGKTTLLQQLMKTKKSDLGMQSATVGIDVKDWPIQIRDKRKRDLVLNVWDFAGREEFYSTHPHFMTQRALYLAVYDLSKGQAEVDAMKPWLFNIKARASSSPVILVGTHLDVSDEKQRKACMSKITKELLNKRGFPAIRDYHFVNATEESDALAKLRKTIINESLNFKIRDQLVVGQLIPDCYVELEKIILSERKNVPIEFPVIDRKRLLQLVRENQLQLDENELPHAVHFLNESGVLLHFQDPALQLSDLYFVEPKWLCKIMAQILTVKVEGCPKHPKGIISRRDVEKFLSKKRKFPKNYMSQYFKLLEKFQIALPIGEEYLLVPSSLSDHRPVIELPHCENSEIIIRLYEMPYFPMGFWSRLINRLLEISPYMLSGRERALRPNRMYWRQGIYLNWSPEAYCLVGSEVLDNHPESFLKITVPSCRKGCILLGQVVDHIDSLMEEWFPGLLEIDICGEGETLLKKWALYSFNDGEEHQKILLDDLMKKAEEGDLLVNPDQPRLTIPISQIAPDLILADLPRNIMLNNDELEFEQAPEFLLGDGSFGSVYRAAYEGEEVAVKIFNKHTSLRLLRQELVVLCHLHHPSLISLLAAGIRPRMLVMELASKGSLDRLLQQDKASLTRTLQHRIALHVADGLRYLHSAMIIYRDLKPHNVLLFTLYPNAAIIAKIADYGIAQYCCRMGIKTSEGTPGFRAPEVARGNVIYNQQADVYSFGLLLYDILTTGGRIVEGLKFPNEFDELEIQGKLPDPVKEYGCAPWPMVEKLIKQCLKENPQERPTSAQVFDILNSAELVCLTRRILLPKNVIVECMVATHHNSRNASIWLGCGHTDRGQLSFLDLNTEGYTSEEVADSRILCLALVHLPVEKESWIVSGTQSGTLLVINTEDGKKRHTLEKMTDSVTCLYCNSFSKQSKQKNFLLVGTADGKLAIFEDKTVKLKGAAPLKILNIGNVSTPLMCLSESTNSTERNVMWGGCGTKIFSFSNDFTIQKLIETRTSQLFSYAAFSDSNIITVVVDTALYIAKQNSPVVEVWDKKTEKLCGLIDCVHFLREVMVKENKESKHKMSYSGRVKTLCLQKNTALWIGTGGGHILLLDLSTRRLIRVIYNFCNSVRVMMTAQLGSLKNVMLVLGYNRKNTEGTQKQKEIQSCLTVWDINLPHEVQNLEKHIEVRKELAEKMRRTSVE
T1 sequence (Q5S007 whole entry D2017A): as the sequence (Q5S007 whole entry) above, with D2017A counted along it
Chain of 14-3-3 binding to LRRK2 (Q5S007 whole entry): as the sequence (Q5S007 whole entry) above

Cc1cncc2cccc(S(=O)(=O)N3CCCNC[C@@H]3C)c12 [H-1152]
basal level of LRRK2 phosphorylation at 910/935 in kinase inactive mutants [1]: did not perturb

COc1cc(C(=O)N2CCC(N3CCN(C)CC3)CC2)ccc1Nc1ncc2c(n1)N(C)c1ccccc1C(=O)N2C [LRRK2-IN1]
phosphorylation of Serines 910/935 [2]: complete dephosphorylation
phosphorylation of Serines 955 and 973 [2]: dephosphorylation
phosphorylation of Serines 910 and 935 or 955 and 973 in kinase inactive mutants [3]: no change was observed
direct 14-3-3 association with LRRK2 [4]: reduced direct 14-3-3 association
localization of GFP tagged LRRK2 [5]: re-localization of the GFP tagged enzyme to intracellular puncta, large accumulations and microtubule like structures
phosphorylation of Ser910, Ser935, Ser955 and Ser973 of FLAG tagged wild-type LRRK2 [6]: dephosphorylated at the corresponding residues
specificity of the inhibitor effects on phosphorylation of serines 955 and 973 [7]: specific to LRRK2
